This is an account of results in publication PMC4608554 (Bioorganic & medicinal chemistry, 2015).

Series [1] has as its system non-iron-overloaded, bile duct-cannulated rats. The settings on record: cited from earlier work.
For series [2] the following is noted: rat liver, sc 300 µmol/kg, cited from earlier work; for fraction of parent polyether cleaved to 2 (from 5) or 3 (from 6): 2 h.
The conditions of series [3]: even when administered b.i.d.; cited from earlier work.
Series [4] can be described thus: Tissue distribution/metabolism of chelators in rats. In kind it is in vivo, rat (male Sprague-Dawley). The settings on record: for concentration in kidney: rat kidney; for presence in heart: later time points (2-8 h) after 11 sc 300 µmol/kg.
Series [5] relates to iron-overloaded Cebus apella monkeys. The settings on record: po, 75 µmol/kg, cited from earlier work.
The test system of the next series is rats. To be noted: rat, cited from earlier work.
The test system of series [6] is non-iron-overloaded, bile duct-cannulated rats. The series can be described thus: Chelator-induced iron clearance. Format: in vivo. The settings on record: po, 300 µmol/kg.
The test system of the next series is male Sprague-Dawley rats. The series can be described thus: 10-day toxicity trial of 11 in rats. In kind it is in vivo, rat. To be noted: 384 µmol/kg/day.
Series [7] concerns iron-overloaded Cebus apella monkeys. The series can be described thus: Chelator-induced iron clearance. In kind it is in vivo. The settings on record: 75 µmol/kg, same animals po and sc.
Where [8] appears, read: bile duct-cannulated rats, po, 150 µmol/kg.
The mark [9] stands for this setting: rat liver, 8 h after 8 sc 300 µmol/kg.
The mark [10] stands for this setting: rat plasma, 8 h after 8 sc 300 µmol/kg.
The mark [11] stands for this setting: rat heart, 0.5 h after 11 sc 300 µmol/kg.
Where [12] appears, read: rat pancreas, 0.5 h after 11 sc 300 µmol/kg.
Where [13] appears, read: rat plasma, 4 h after 11 sc 300 µmol/kg.
[14] abbreviates: rat liver, 0.5 h after 11 sc 300 µmol/kg.
Setting [15] is: rat liver, 1 h after 11 sc 300 µmol/kg.
Where [16] appears, read: rat heart, 1 h after 11 sc 300 µmol/kg.
[17] abbreviates: rat liver, 8 h after 11 sc 300 µmol/kg.
Where [18] appears, read: rat pancreas, 1 h after 11 sc 300 µmol/kg.

Where “and” joins values, the source holds several entries; their conditions need not be identical. Identical values can stand only once. Entries after “also recorded” stand apart in the source; their conditions may differ. Like-named read-outs stand apart in the source and are kept apart here.

Turning to `CCCCOc1ccc(C2=N[C@@H](C(=O)O)CS2)c(O)c1` [(S)-2-(4-butoxy-2-hydroxyphenyl)-4,5-dihydro-4-thiazolecarboxylic acid], in series [1] (4'-butoxy analogue of 2), the time to deaths is given as ≤ 24 h.

`COc1ccc(C2=N[C@@](C)(C(=O)O)CS2)c(O)c1` [compound 4, (S)-4,5-dihydro-2-(2-hydroxy-4-methoxyphenyl)-4-methyl-4-thiazolecarboxylic acid]: the “fraction of parent demethylated to 2” value in [2] (2 h post drug) is “about 30%”.

Take `COCCOCCOCCOc1ccc(C2=N[C@@](C)(C(=O)O)CS2)c(O)c1` [compound 5, (S)-4,5-dihydro-2-[2-hydroxy-4-(3,6,9-trioxadecyloxy)phenyl]-4-methyl-4-thiazolecarboxylic acid]: the “fraction of parent polyether cleaved to 2 (from 5) or 3 (from 6)” value in series [2] is listed as 2%. Moreover, the renal toxicity entry in series [3] is listed as “no renal toxicity”.

As for `COCCOCCOCCOc1cccc(C2=N[C@@](C)(C(=O)O)CS2)c1O` [compound 6, (S)-4,5-dihydro-2-[2-hydroxy-3-(3,6,9-trioxadecyloxy)phenyl]-4-methyl-4-thiazolecarboxylic acid], the “fraction of parent polyether cleaved to 2 (from 5) or 3 (from 6)” value in series [2] was 2.6%. Also, in series [1] (setting [8]), the ICE is 18.7 ± 2.9% and the iron decorporated is listed as 0.782 ± 0.121 mg/kg. The “quantity of iron excreted” value in [1] (bile duct-cannulated rats, po, 300 µmol/kg) is recorded as 0.887 ± 0.367 mg/kg. In series [3], the renal toxicity result is reported as “no renal toxicity”.

For `COCCOCCOc1ccc(C2=N[C@@](C)(C(=O)O)CS2)c(O)c1` [compound 7, (S)-4,5-dihydro-2-[2-hydroxy-4-(3,6-dioxaheptyloxy)phenyl]-4-methyl-4-thiazolecarboxylic acid], the “cleavage of the terminal methyl of 7 to alcohol 8” value in series [4] (rat tissues, 7 sc 300 µmol/kg) is listed as “did occur”. Also, in series [4] (rats, 7 sc 300 µmol/kg), the “cleavage of 7 at the 4'-(HO) to 2” value is “does not sustain metabolic cleavage”. In addition, the “Primate ICE (%)” value is 28.7 ± 12.4% in [5] (as monosodium salt); ~ 26% and 26.3 ± 9.9% in series [5] (in capsules). Also, the histopathology result in the series with rats (extensive tissues) is “no drug-related abnormalities were identified”. Moreover, the “urinary Kim-1 excretion” value in the series with rats (up to 28 d) was “did not elicit any increases”.

Consider `C[C@]1(C(=O)O)CSC(c2ccc(OCCOCCO)cc2O)=N1` [compound 8, (S)-4,5-dihydro-2-[2-hydroxy-4-(5-hydroxy-3-oxapentyloxy)phenyl]-4-methyl-4-thiazolecarboxylic acid], for which the “share of the drug (parent + metabolite)” value in [4] (rat liver, 0.5 h after 8 sc 300 µmol/kg) turned out to be 53%. Moreover, in series [4] (setting [9]), the presence in liver entry is recorded as “very little”. The “share of total drug concentration” value in [4] (rat plasma, 0.5 h after 7 sc 300 µmol/kg) amounted to 5%. In series [4] (setting [10]), the presence in plasma result is recorded as “Neither the parent 8 nor the metabolite 9 was found”.

On to `C[C@]1(C(=O)O)CSC(c2ccc(OCCOCC(=O)O)cc2O)=N1` [compound 9, (S)-4,5-dihydro-2-[2-hydroxy-4-(4-carboxy-3-oxabutyloxy)phenyl]-4-methyl-4-thiazolecarboxylic acid], for which the “share of the drug (parent + metabolite)” value in series [4] (rat liver, 1 h after 8 sc 300 µmol/kg) was determined as 59%. In addition, the presence in liver entry in series [4] (setting [9]) is “no metabolite 9 remains”. In series [4] (rat plasma, 0.5 h after 8 sc 300 µmol/kg), the “share of drug converted to / in the form of metabolite” value was ~60%. Also, the “share of drug in the form of the metabolite” value in series [4] (rat plasma, 2 h after 8 sc 300 µmol/kg) stood at 88%. The presence in plasma entry in [4] (setting [10]) is on record as “Neither the parent 8 nor the metabolite 9 was found”. For the same compound, the “presence of carboxylic acid 9 in tissues after 7” value in series [4] (rat tissues, 7 sc 300 µmol/kg) is “not detected”.

For `COCCCCCCOc1ccc(C2=N[C@@](C)(C(=O)O)CS2)c(O)c1` [compound 10, (S)-4,5-dihydro-2-[2-hydroxy-4-(6-methoxyhexyloxy)phenyl]-4-methyl-4-thiazolecarboxylic acid], in series [6] (bile duct-cannulated rats), the “overt toxicity in rats” value is recorded as “profoundly toxic; also recorded: very toxic”. For the same compound, the “time of death of one of the animals post drug” value in series [6] (bile duct-cannulated rats, remaining rodents euthanized at 24 h) is ~ 22 h. In addition, the “time of peak drug-induced iron excretion post drug” value in series [6] (rat) came out at 6 h.

Turning to `C[C@]1(C(=O)O)CSC(c2ccc(OCCCCCCO)cc2O)=N1` [compound 11, (S)-4,5-dihydro-2-[2-hydroxy-4-(6-hydroxyhexyloxy)phenyl]-4-methyl-4-thiazolecarboxylic acid], the survival result with male Sprague-Dawley rats (rat, po by gavage once daily for ten days) was “survived”. Besides, the “histopathology (25 tissues/rat)” value with male Sprague-Dawley rats (rat, po once daily x 10 d) was “could not identify any drug-related abnormalities”. Moreover, the overall toxicity result in the series on male Sprague-Dawley rats (rodents, once daily for 10 days) is given as “complete lack of toxicity”. The compound further yielded a concentration in heart in [4] (setting [11]) of 26 nmol/g wet weight. The concentration in kidney result in series [4] (0.5 h after 11 sc 300 µmol/kg) is “trace amounts”. Moreover, the presence in liver result in series [4] (rat liver, any of the time points (0.5-8 h) after 11 sc 300 µmol/kg) is reported as “not found”. In addition, the concentration in pancreas in series [4] (setting [12]) was < 5 nmol/g wet weight. Moreover, the “share of the total (parent + metabolites)” value in series [4] (setting [13]) is listed as “no longer detectable”. Besides, the “conversion of alcohol 11 to metabolites 12-14” value in [4] (rats, 11 sc 300 µmol/kg) was “Significant conversion; also recorded: quickly converted; also recorded: very quickly converted”. The “overt toxicity in rats” value in series [6] (bile duct-cannulated rats) is on record as “did not present with any overt toxicity; also recorded: did not display any overt toxicity; also recorded: did not elicit any signs of overt toxicity”.

Regarding `C[C@]1(C(=O)O)CSC(c2ccc(OCCCCCC(=O)O)cc2O)=N1` [compound 12, (S)-4,5-dihydro-2-[2-hydroxy-4-(5-carboxypentyloxy)phenyl]-4-methyl-4-thiazolecarboxylic acid], in series [4] (rat heart, any of the time points after 11 sc 300 µmol/kg), the “presence in cardiac tissue” value is “not found”. Moreover, the concentration in kidney entry in series [4] (0.5 h after 11 sc 300 µmol/kg) and in [4] (1 h after 11 sc 300 µmol/kg) was “found” throughout. For the same compound, the presence in liver result in series [4] (rat liver, 2, 4, or 8 h after 11 sc 300 µmol/kg) was “not detected”. Further, the “share of the total drug (parent + metabolites)” value (shortened to “share of the total drug”) in series [4] (setting [14]) came out at 11%; in [4] (setting [15]), 2%. For the same compound, the presence in pancreas result in series [4] (rat pancreas, any of the time points after 11 sc 300 µmol/kg) is given as “not found”. In [4] (rat plasma, 0.5-8 h after 11 sc 300 µmol/kg), the presence in plasma entry is given as “None”.

Consider `C[C@]1(C(=O)O)CSC(c2ccc(OCCCC(=O)O)cc2O)=N1` [compound 13, (S)-4,5-dihydro-2-[2-hydroxy-4-(3-carboxypropyloxy)phenyl]-4-methyl-4-thiazolecarboxylic acid], for which the concentration in heart in [4] (setting [11]) and in [4] (setting [16]) was ~ 46 nmol/g wet weight throughout. In addition, the presence in heart entry in series [4] (rat heart) is listed as “not found”. The concentration in kidney in series [4] (0.5 h after 11 sc 300 µmol/kg) is ~ 300 nmol/g wet weight; in series [4] (1 h after 11 sc 300 µmol/kg), ~ 300 nmol/g wet weight; in series [4] (8 h after 11 sc 300 µmol/kg) it was “not detectable”. Further, the “share of the total drug” value in series [4] (setting [14]) was 71%; in series [4] (setting [15]), 73%; in series [4] (rat liver, 2 h after 11 sc 300 µmol/kg), 66%; in [4] (rat liver, 4 h after 11 sc 300 µmol/kg), 70%. Further, the presence in liver entry in [4] (setting [17]) is reported as “no 13 remained”. The concentration in pancreas in [4] (setting [12]) came out at 19 nmol/g wet weight; in [4] (setting [18]), 23 nmol/g wet weight. Further, the “share of the total (parent + metabolites)” value in series [4] (rat plasma, 0.5 h after 11 sc 300 µmol/kg) is 62%; in series [4] (setting [13]) it was 50%. The “share of the total plasma drug concentration” value in [4] (rat plasma, 8 h after 11 sc 300 µmol/kg) is 65%. Also, the “sc ICE vs po ICE in the primates (times higher)” value in series [7] was 3.4 times.

As to `C[C@]1(C(=O)O)CSC(c2ccc(OCC(=O)O)cc2O)=N1` [compound 14, (S)-4,5-dihydro-2-[2-hydroxy-4-(carboxymethoxy)phenyl]-4-methyl-4-thiazolecarboxylic acid], the concentration in heart is listed as 17 nmol/g wet weight in [4] (setting [11]) and 23 nmol/g wet weight in series [4] (setting [16]). Besides, the presence in heart entry in series [4] (rat heart) was “not found”. Further, the concentration in kidney worked out at 156 nmol/g wet weight in [4] (0.5 h after 11 sc 300 µmol/kg), 201 nmol/g wet weight in [4] (1 h after 11 sc 300 µmol/kg), 161 nmol/g wet weight in series [4] (2 h after 11 sc 300 µmol/kg) and 5 nmol/g wet weight in [4] (8 h after 11 sc 300 µmol/kg). In addition, the “share of the total drug” value worked out at 18% in [4] (setting [14]) and 25% in series [4] (setting [15]). In addition, the presence in liver result in series [4] (setting [17]) is on record as “trace amounts”. Moreover, the concentration in pancreas entry in series [4] (setting [12]) is listed as “Trace amounts”; in [4] (setting [18]), “Trace amounts”; in series [4] (rat pancreas, 2 h after 11 sc 300 µmol/kg), “Trace amounts”. Besides, in [4] (setting [13]), the “share of the total (parent + metabolites)” value is recorded as 50%. Moreover, in series [7], the “sc ICE vs po ICE in the primates (times higher)” value is reported as 5.3 times.
